Columns and labels:
PI3K γ = molecular target: T1, PI3K γ (Homo sapiens, UniProt P48736); test: PI3K gamma inhibition IC50 (Thermo Fisher); type: biochemical; conditions: 10-point curve
T1 construct: purchased Thermo Fisher Scientific-Biosciences Life Sciences Solutions, Madison, Wis; (contract assay service)
Excerpt: (§1) The inhibitory activity of a compound of the invention against PI3K and/or BRD4 and/or SYK and/or CDK4/6 can be readily determined using methods known to the skilled artisan, or by commercial vendors offering such services. […] In vivo, PI3K inhibition can be determined from target tissue biopsies by standard tissue processing to disrupt cells and then performing Western Blot analysis to determine the presence or absence of pAKT (substrate of PI3K) relative to a control sample. The activity of a compound of the invention as an inhibitor of a bromodomain-containing protein, such as a BET protein, such as BRD2, BRD3, BRD4, and/or BRDT, or an isoform or mutant thereof, may be determined in vitro, in vivo, or in a cell line. In vitro assays include assays that determine inhibition of bromodomain-containing proteins. Alternatively, inhibitor binding may be determined by running a competition experiment where a provided compound is incubated with a bromodomain-containing protein, such as a BET protein bound to known ligands, labeled or unlabeled. For example, bromodomain inhibition can be determined in vitro using Alpha Screen Technology (http://www.reactionbiologv.com/webapps/site/NewsPDFs/Bromodomain%20Assay %20Platform %20for %20Drug %20Screening %20and %20Discovery.pdf). In vivo bromodomain inhibition can be determined indirectly by evaluating the amount of protein present of proteins whose genes' transcription is influenced or controlled by the bromodomain protein, for example, the MYCN protein transcription is controlled by BRD4 (J. E. Delmore et al., Cell 2011, 146, 904-917; A. Puissant, Cancer Discov. 2013, 3, 308-323). Bromodomain inhibition may also be predicted by in silico modeling as described below in the Examples. Additionally, the company Promega offers a SYK luminescent assay to determine a compound's ability to inhibit the SYK protein (https://www.promega.com/-/media/files/resources/protocols/kinase-enzyme-appnotes/syk-kinase-assay-protocol.pdf?la=en).
(§2) Compounds of the invention were characterized for their ability to inhibit target proteins using third party vendors offering such services. PI3K alpha, gamma, and delta inhibition activity was determined by Thermo Fisher Scientific-Biosciences Life Sciences Solutions, Madison, Wis. The bromodomain protein inhibition (binding domain 1 and 2 of BRD4) as well as SYK inhibition was determined at Reaction Biology Corp., Malvern, Pa. […] The IC50 data (shown below in Table 5) was calculated from a 10-point curve and is expressed in nanomolar concentration (nM) rounded off to the nearest whole number. […]

BRD4-2 = molecular target: T2, BRD4-2 (Homo sapiens, UniProt O60885); test: Bromodomain protein inhibition IC50, binding domain 2 of BRD4 (Reaction Biology Corp.); conditions: 10-point curve
T2 construct: purchased Reaction Biology Corp., Malvern, Pa; (contract assay service)
Excerpt: as §1, §2

PI3K α = molecular target: T3, PI3K α (Homo sapiens, UniProt P42336); test: PI3K alpha inhibition IC50 (Thermo Fisher); type: biochemical; conditions: 10-point curve
T3 construct: purchased Thermo Fisher Scientific-Biosciences Life Sciences Solutions, Madison, Wis; (contract assay service)
T3 sequence (P42336 whole entry): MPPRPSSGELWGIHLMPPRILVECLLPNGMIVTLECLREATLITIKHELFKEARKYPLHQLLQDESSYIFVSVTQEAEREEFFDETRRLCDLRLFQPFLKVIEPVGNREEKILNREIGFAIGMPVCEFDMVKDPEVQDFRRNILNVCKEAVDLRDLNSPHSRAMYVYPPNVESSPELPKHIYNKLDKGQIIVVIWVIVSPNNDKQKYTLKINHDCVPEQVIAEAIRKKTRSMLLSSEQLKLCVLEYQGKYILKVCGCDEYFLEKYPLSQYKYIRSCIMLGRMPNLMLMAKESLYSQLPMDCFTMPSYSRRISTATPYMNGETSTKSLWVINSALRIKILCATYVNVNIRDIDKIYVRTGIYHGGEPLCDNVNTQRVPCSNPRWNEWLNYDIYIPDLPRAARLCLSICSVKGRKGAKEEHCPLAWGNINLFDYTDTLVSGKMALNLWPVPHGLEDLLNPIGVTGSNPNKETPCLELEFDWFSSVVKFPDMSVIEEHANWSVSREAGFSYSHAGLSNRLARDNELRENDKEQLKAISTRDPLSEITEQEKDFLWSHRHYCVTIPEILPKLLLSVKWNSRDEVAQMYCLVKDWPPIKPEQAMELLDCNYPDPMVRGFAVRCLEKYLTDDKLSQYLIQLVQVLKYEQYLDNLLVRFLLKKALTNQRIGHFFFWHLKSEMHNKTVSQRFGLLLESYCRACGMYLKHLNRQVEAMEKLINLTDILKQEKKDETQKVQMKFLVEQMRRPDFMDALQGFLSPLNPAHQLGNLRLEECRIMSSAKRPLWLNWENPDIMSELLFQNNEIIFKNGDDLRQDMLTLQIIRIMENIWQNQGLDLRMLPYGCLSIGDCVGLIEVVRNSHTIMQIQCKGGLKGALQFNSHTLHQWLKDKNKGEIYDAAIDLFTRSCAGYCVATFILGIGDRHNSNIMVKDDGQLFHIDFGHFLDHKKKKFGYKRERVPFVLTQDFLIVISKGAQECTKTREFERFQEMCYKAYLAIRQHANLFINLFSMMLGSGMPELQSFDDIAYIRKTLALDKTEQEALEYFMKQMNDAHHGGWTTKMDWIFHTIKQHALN
T3 sequence (P27986 whole entry partner): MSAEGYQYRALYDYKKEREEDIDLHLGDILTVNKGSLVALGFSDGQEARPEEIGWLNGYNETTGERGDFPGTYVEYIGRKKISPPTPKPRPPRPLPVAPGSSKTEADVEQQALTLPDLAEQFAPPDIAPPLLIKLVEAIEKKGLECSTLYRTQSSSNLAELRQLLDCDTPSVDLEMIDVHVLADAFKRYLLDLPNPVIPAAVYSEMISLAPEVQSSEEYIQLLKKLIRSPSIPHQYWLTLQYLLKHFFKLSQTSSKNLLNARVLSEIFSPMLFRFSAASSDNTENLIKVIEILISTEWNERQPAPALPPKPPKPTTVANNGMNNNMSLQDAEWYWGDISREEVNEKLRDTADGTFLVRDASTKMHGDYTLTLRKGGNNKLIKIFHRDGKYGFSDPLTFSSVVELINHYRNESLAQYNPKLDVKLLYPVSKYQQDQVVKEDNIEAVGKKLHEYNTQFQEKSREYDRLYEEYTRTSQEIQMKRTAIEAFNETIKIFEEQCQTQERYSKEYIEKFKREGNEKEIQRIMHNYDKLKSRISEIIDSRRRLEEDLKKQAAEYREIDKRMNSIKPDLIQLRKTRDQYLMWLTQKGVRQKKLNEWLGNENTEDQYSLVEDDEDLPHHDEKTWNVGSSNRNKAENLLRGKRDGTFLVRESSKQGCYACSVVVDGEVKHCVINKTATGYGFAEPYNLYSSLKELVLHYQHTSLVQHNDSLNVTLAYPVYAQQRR
Excerpt: as §1, §2

SYK = molecular target: T4, SYK (Homo sapiens, UniProt P43405); test: SYK inhibition IC50 (Reaction Biology Corp.); type: biochemical; conditions: 10-point curve; read-out: SYK IC50
T4 construct: purchased Reaction Biology Corp., Malvern, Pa; (contract assay service)
Excerpt: as §1
Compounds of the invention were characterized for their ability to inhibit target proteins using third party vendors offering such services. PI3K alpha, gamma, and delta inhibition activity was determined by Thermo Fisher Scientific-Biosciences Life Sciences Solutions, Madison, Wis. The bromodomain protein inhibition (binding domain 1 and 2 of BRD4) as well as SYK inhibition was determined at Reaction Biology Corp., Malvern, Pa. Additional information on each of the assays performed and services provided is available at each company's website on the internet (https://www.thermofisher.com/us/en/home/life-science.html and http://www.reactionbiology.com/webapps/site, respectively). The IC50 data (shown below in Table 5) was calculated from a 10-point curve and is expressed in nanomolar concentration (nM) rounded off to the nearest whole number. Where multiple values were obtained the range from lowest to highest values is presented. NI=no inhibition detected up to 50 uM or IC50 not reached at 50 uM.

[1] = tested on: Bone marrow derived macrophages (BMDMs), M1 gene expression; test: M1 marker mRNA in LPS stimulated bone marrow derived macrophages (RT PCR); type: cell-based, murine; conditions: for Il1 mRNA expression relative to control / Il6 mRNA expression relative to control / Tnfa mRNA expression relative to control: LPS stimulated BMDMs, 24 hours, normalized to GAPDH, control = 1
Excerpt: […] M2 markers Mmr, Ym1, Fizz1 and Mgl mRNA and M1 markers I11, 116 and Tnfa mRNA was quantitated by RT PCR. Values are mean±SEM (n=3-4). Expression of gene of interest is normalized to GAPDH. […] The data provide direct evidence that Compound 1 can block the immunosuppressive macrophage M2 gene expression and activate the M1 gene expression and therefore activate antitumor innate immune cell differentiation in vitro.
(§3) Relative mRNA expression of IL4 or LPS polarized genes in murine bone marrow derived macrophages (BMDMs) treated with various concentrations of inhibitors in vitro. Conclusion: Compound 3 suppressed in vitro macrophage specific immunosuppressive M2 gene expression markers and augmented macrophage stimulatory immune response M1 genes respectively.

[2] = tested on: Bone marrow derived macrophages (BMDMs), M2 gene expression; test: M2 marker mRNA in IL4 stimulated bone marrow derived macrophages (RT PCR); type: cell-based, murine; conditions: 24 hours, normalized to GAPDH, control = 1
[3] = tested on: Bone marrow derived macrophages (BMDMs), M2 gene expression; test: as above; type: cell-based, murine; conditions: for Arg mRNA expression relative to control / Fizz1 mRNA expression relative to control / Mmr mRNA expression relative to control / Ym1 mRNA expression relative to control / Mgl mRNA expression relative to control: IL4 stimulated BMDMs, 24 hours, normalized to GAPDH, control = 1
Procedure: Bone marrow derived macrophages (MOs) (BMDMs) were exposed to IL4 or LPS for 24 hours to stimulate the M2 or M1 macrophage transition in presence of Compound 1 and the known SYK inhibitor Bay-61-3606 at 1 μM conc. M2 markers Mmr, Ym1, Fizz1 and Mgl mRNA and M1 markers I11, 116 and Tnfa mRNA was quantitated by RT PCR. Values are mean±SEM (n=3-4). Expression of gene of interest is normalized to GAPDH. […] The data provide direct evidence that Compound 1 can block the immunosuppressive macrophage M2 gene expression and activate the M1 gene expression and therefore activate antitumor innate immune cell differentiation in vitro.
as §3

BRD4-1 = molecular target: T5, BRD4-1 (Homo sapiens, UniProt O60885); test: Bromodomain protein inhibition IC50, binding domain 1 of BRD4 (Reaction Biology Corp.); conditions: 10-point curve
T5 construct: purchased Reaction Biology Corp., Malvern, Pa; (contract assay service)
Excerpt: as §1, §2

T1 sequence (P48736 whole entry): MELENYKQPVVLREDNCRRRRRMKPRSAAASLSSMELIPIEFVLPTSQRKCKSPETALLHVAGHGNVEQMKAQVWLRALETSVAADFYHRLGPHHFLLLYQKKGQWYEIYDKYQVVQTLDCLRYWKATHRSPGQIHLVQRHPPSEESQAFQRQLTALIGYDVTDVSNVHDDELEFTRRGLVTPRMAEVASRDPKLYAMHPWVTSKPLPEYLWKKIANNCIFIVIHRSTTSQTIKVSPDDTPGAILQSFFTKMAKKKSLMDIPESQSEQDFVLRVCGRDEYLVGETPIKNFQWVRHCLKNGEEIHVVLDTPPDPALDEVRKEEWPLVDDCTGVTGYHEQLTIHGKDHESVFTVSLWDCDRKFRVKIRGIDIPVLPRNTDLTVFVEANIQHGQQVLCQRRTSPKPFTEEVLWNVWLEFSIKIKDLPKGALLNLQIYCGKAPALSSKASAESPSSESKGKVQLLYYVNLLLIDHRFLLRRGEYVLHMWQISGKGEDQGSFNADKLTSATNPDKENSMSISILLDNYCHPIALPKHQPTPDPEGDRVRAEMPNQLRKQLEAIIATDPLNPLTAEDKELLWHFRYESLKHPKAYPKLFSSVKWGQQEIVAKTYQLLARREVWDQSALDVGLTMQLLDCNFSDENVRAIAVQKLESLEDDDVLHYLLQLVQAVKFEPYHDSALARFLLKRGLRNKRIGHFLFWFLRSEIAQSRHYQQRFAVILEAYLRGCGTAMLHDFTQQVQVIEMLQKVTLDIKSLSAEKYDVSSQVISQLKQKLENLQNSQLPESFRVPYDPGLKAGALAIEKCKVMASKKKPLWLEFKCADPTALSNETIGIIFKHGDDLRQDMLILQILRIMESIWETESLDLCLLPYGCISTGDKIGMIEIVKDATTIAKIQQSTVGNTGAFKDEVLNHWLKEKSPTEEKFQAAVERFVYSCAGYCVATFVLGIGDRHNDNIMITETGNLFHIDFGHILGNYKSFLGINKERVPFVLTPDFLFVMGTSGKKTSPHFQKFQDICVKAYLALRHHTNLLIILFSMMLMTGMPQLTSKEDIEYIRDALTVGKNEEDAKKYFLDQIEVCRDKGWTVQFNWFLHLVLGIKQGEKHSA

IC50 (PI3K γ): 5 to 50 µM
IC50 (BRD4-2): > 50 µM
IC50 (PI3K α): 0.1 to 1 µM
IC50 (SYK): < 0.1 µM
IC50 (BRD4-1): > 50 µM
Compound: Cc1nn(-c2ccnc(Nc3ccc(-c4csc5c(=O)cc(N6CCOCC6)oc45)cc3)n2)cc1CN1CC(O)C1 [Compound 1, 3-[p-(4-{4-[(3-Hydroxy-1-azetidinyl)methyl]-3-methyl-1H-pyrazol-1-yl}-2-pyrimidinylamino)phenyl]-5-morpholino-4-oxa-1-thia-7-indenone]
Il1 mRNA expression relative to control ([1]; 200 nM): 1.1
Il6 mRNA expression relative to control ([1]; 200 nM): 1.7
Tnfa mRNA expression relative to control ([1]; 200 nM): 0.88
Il1 mRNA expression relative to control ([1]; 500 nM): 1.1
Il6 mRNA expression relative to control ([1]; 500 nM): 1.29
Tnfa mRNA expression relative to control ([1]; 500 nM): 1.23
Il1 mRNA expression relative to control ([1]; 1 μM): 1.2
Il6 mRNA expression relative to control ([1]; 1 μM): 3.15
Tnfa mRNA expression relative to control ([1]; 1 μM): 1.70
Il1 mRNA expression relative to control ([1]; 2 μM): 1.25
Il6 mRNA expression relative to control ([1]; 2 μM): 1.59
Tnfa mRNA expression relative to control ([1]; 2 μM): 1.99
Il1 mRNA expression relative to control ([1]; 5 μM): 0.69
Il6 mRNA expression relative to control ([1]; 5 μM): 0.97
Tnfa mRNA expression relative to control ([1]; 5 μM): 0.90
M1 inflammatory gene expression ([1]; BMDMs, LPS 24 hours, 1 μM): augments M1 inflammatory gene expression
Mgl mRNA expression relative to control ([2]; 200 nM): 0.31
Fizz1 mRNA expression relative to control ([2]; 2 μM): 0.22
Arg mRNA expression relative to control ([3]; 200 nM): 0.5
Fizz1 mRNA expression relative to control ([3]; 200 nM): 0.44
Mmr mRNA expression relative to control ([3]; 200 nM): 0.41
Ym1 mRNA expression relative to control ([3]; 200 nM): 0.37
Arg mRNA expression relative to control ([3]; 500 nM): 0.45
Fizz1 mRNA expression relative to control ([3]; 500 nM): 0.31
Mgl mRNA expression relative to control ([3]; 500 nM): 0.41
Mmr mRNA expression relative to control ([3]; 500 nM): 0.18
Ym1 mRNA expression relative to control ([3]; 500 nM): 0.21
Arg mRNA expression relative to control ([3]; 1 μM): 0.39
Fizz1 mRNA expression relative to control ([3]; 1 μM): 0.11
Mgl mRNA expression relative to control ([3]; 1 μM): 0.30
Mmr mRNA expression relative to control ([3]; 1 μM): 0.19
Ym1 mRNA expression relative to control ([3]; 1 μM): 0.10
Arg mRNA expression relative to control ([3]; 2 μM): 0.14
Mgl mRNA expression relative to control ([3]; 2 μM): 0.40
Mmr mRNA expression relative to control ([3]; 2 μM): 0.14
Ym1 mRNA expression relative to control ([3]; 2 μM): 0.11
Arg mRNA expression relative to control ([3]; 5 μM): 0.22
Fizz1 mRNA expression relative to control ([3]; 5 μM): 0.06
Mgl mRNA expression relative to control ([3]; 5 μM): 0.24
Mmr mRNA expression relative to control ([3]; 5 μM): 0.18
Ym1 mRNA expression relative to control ([3]; 5 μM): 0.04
immunosuppressive macrophage M2 gene expression ([3]; BMDMs, IL4 24 hours, 1 μM): blocks immunosuppressive M2 gene expression

From patent publication US11472814B2, “Thienopyranones and furanopyranones as checkpoint inhibitors and modulators of anti-tumor immunity” (SignalRx Pharmaceuticals, Inc., priority 2017, dated 2022)
